Measured values from patent publication US6369092B1, “Method for treating neoplasia by exposure to substituted benzimidazole derivatives” (Cell Pathways, Inc., priority 1998, dated 2002).

SMILES: CCCc1nc2ccc(NC(=O)OC(C)(C)C)cc2n1Cc1ccccc1Cl [I, 6-t-Butoxycarbonylamino-1-(2-Chlorobenzyl)-2-n-Propylbenzimidazole]
- melting point: 166 to 168 °C
